Experimental data taken from PubChem BioAssay (NCI).
“And” between values parts separate entries of the source, which are not always exact repeats. Equal entries are not always repeated.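 Compound exposure: 48 hours, 5 concentrations, 96-well plates. At the GI50, growth is halved. The concentration for full growth arrest is given as TGI.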

How the values were obtained:
Test in all cases: NCI tumour cell line growth inhibition, 48 h
786-0 renal = system: 786-0 renal
DU-145 prostate = system: DU-145 prostate
HCT-15 colon = system: HCT-15 colon
HT29 colon = system: HT29 colon
IGROV1 ovarian = system: IGROV1 ovarian
MDA-MB-435 = system: MDA-MB-435
NCI-H226 lung = system: NCI-H226 lung
NCI-H460 lung = system: NCI-H460 lung
SK-MEL-2 melanoma = system: SK-MEL-2 melanoma
SK-MEL-28 melanoma = system: SK-MEL-28 melanoma

COc1cccc(-c2nn(-c3ccccc3)cc2-c2ccnc(NCCNC(=O)Nc3ccc(Cl)c(Cl)c3)c2)c1 was tested, and the GI50 (786-0 renal) was 1.55 µM, the TGI (786-0 renal) was 3.28 µM and the GI50 (DU-145 prostate) was 3.52 µM. It also gave a TGI (DU-145 prostate) of 12.7 µM, a GI50 (HCT-15 colon) of 3 µM and a TGI (HCT-15 colon) of 10.7 µM. The GI50 (HT29 colon) was 1.91 µM, the TGI (HT29 colon) was 5.39 µM and the GI50 (IGROV1 ovarian) was 3.61 µM. The TGI (IGROV1 ovarian) was 15.6 µM, the GI50 (MDA-MB-435) was 1.86 µM and the TGI (MDA-MB-435) was 4.26 µM. The GI50 (NCI-H226 lung) was 3.63 µM, the TGI (NCI-H226 lung) was 18.7 µM and the GI50 (NCI-H460 lung) was 1.88 µM. It also gave a TGI (NCI-H460 lung) of 4.33 µM, a GI50 (SK-MEL-2 melanoma) of 2.09 µM and a TGI (SK-MEL-2 melanoma) of 5.17 µM. For the same molecule, the GI50 (SK-MEL-28 melanoma) was 2.03 µM and the TGI (SK-MEL-28 melanoma) was 4.59 µM.

COc1ccc(S(=O)(=O)N/N=C/C(=O)O)cc1 showed a TGI (786-0 renal) of 971 µM, a TGI (DU-145 prostate) of 843 µM and a TGI (HCT-15 colon) of 1080 µM. For the same molecule, the TGI (HT29 colon) was > 580 µM, the TGI (IGROV1 ovarian) was 1060 µM and the TGI (MDA-MB-435) was > 1250 µM. For the same molecule, the TGI (NCI-H226 lung) was > 1220 µM, the TGI (NCI-H460 lung) was > 1230 µM and the TGI (SK-MEL-2 melanoma) was 826 µM. The TGI (SK-MEL-28 melanoma) was > 1250 µM.

For Cc1ccc(NCSc2ccc(Cl)cc2)cc1, the GI50 (786-0 renal) was 6.53 µM, the TGI (786-0 renal) was > 100 µM and the GI50 (DU-145 prostate) was > 100 µM. The TGI (DU-145 prostate) was > 100 µM, the GI50 (HCT-15 colon) was > 100 µM and the TGI (HCT-15 colon) was > 100 µM. For the same molecule, the GI50 (HT29 colon) was > 100 µM, the TGI (HT29 colon) was > 100 µM and the GI50 (IGROV1 ovarian) was 15.3 µM. For the same molecule, the TGI (IGROV1 ovarian) was > 100 µM, the GI50 (MDA-MB-435) was 9.99 µM and the TGI (MDA-MB-435) was > 100 µM. The GI50 (NCI-H226 lung) was 44.7 µM, the TGI (NCI-H226 lung) was > 100 µM and the GI50 (NCI-H460 lung) was > 100 µM. For the same molecule, the TGI (NCI-H460 lung) was > 100 µM, the GI50 (SK-MEL-2 melanoma) was > 100 µM and the TGI (SK-MEL-2 melanoma) was > 100 µM. For the same molecule, the GI50 (SK-MEL-28 melanoma) was > 100 µM and the TGI (SK-MEL-28 melanoma) was > 100 µM.

Oc1cccc(-c2nc3ccccc3s2)c1 was tested, and the TGI (786-0 renal) was > 100 µM, the TGI (DU-145 prostate) was > 100 µM and the TGI (HCT-15 colon) was > 100 µM. For the same molecule, the TGI (HT29 colon) was 42.9 µM, the TGI (IGROV1 ovarian) was 63.8 µM and the TGI (MDA-MB-435) was > 100 µM. For the same molecule, the TGI (NCI-H226 lung) was 73 µM, the TGI (NCI-H460 lung) was > 100 µM and the TGI (SK-MEL-2 melanoma) was > 100 µM. The TGI (SK-MEL-28 melanoma) was > 100 µM.

For COc1ccccc1C(=O)c1cnc(NC2CCN(S(C)(=O)=O)CC2)nc1N, the GI50 (786-0 renal) was 8.15 µM, the TGI (786-0 renal) was > 25 µM and the GI50 (DU-145 prostate) was 6.51 µM. For the same molecule, the TGI (DU-145 prostate) was > 25 µM, the GI50 (HCT-15 colon) was 6.28 µM and the TGI (HCT-15 colon) was > 25 µM. The GI50 (HT29 colon) was 6.27 µM, the TGI (HT29 colon) was > 25 µM and the GI50 (IGROV1 ovarian) was 8.05 µM. For the same molecule, the TGI (IGROV1 ovarian) was > 25 µM, the GI50 (MDA-MB-435) was 4.83 µM and the TGI (MDA-MB-435) was > 25 µM. For the same molecule, the GI50 (NCI-H226 lung) was 4.62 µM, the TGI (NCI-H226 lung) was > 23.1 µM and the GI50 (NCI-H460 lung) was 2.85 µM. For the same molecule, the TGI (NCI-H460 lung) was > 25 µM, the GI50 (SK-MEL-2 melanoma) was 9.93 µM and the TGI (SK-MEL-2 melanoma) was > 25 µM. The GI50 (SK-MEL-28 melanoma) was 6.38 µM and the TGI (SK-MEL-28 melanoma) was > 25 µM.

Cc1ccc([P+](Cc2ccc([N+](=O)[O-])cc2)(c2ccc(C)cc2)c2ccc(C)cc2)cc1 gave a GI50 (786-0 renal) of 9.72 µM, a TGI (786-0 renal) of 22.3 µM and a GI50 (DU-145 prostate) of 5.44 µM. It also gave a TGI (DU-145 prostate) of 20.8 µM, a GI50 (HCT-15 colon) of 18.2 µM and a TGI (HCT-15 colon) of 46.2 µM. For the same molecule, the GI50 (HT29 colon) was 2.51 µM, the TGI (HT29 colon) was 12.8 µM and the GI50 (IGROV1 ovarian) was 2.53 µM. It also gave a TGI (IGROV1 ovarian) of 14.8 µM, a GI50 (MDA-MB-435) of 0.772 µM and a TGI (MDA-MB-435) of 3.6 µM. It also gave a GI50 (NCI-H226 lung) of 5.31 µM, a TGI (NCI-H226 lung) of 21.4 µM and a GI50 (NCI-H460 lung) of 4.26 µM. The TGI (NCI-H460 lung) was 16.8 µM, the GI50 (SK-MEL-2 melanoma) was 1.96 µM and the TGI (SK-MEL-2 melanoma) was 4.51 µM. For the same molecule, the GI50 (SK-MEL-28 melanoma) was 2.82 µM and the TGI (SK-MEL-28 melanoma) was 12.9 µM.

For COc1c(O)c(OC)c(C(=O)/C=C/c2ccccc2)c(O)c1OC, the TGI (786-0 renal) was > 100 µM, the TGI (DU-145 prostate) was > 100 µM and the TGI (HCT-15 colon) was > 100 µM. For the same molecule, the TGI (HT29 colon) was > 100 µM, the TGI (IGROV1 ovarian) was > 100 µM and the TGI (MDA-MB-435) was 66.2 µM. For the same molecule, the TGI (NCI-H226 lung) was > 100 µM, the TGI (NCI-H460 lung) was 45.8 µM and the TGI (SK-MEL-2 melanoma) was 61.2 µM. The TGI (SK-MEL-28 melanoma) was > 100 µM.

For COC(=O)[C@H](Cc1ccccc1)NC(=O)c1csc([C@@H](C[C@H](C(C)C)N(C)C(=O)[C@@H](NC(=O)[C@H]2CCCCN2C)C2CC2)OC(C)=O)n1, the GI50 (786-0 renal) was 0.064 µM, the TGI (786-0 renal) was > 25 µM and the GI50 (DU-145 prostate) was 0.0218 µM. The TGI (DU-145 prostate) was > 25 µM, the GI50 (HCT-15 colon) was 0.0915 µM and the TGI (HCT-15 colon) was > 25 µM. The GI50 (HT29 colon) was 0.0175 µM, the TGI (HT29 colon) was > 25 µM and the GI50 (IGROV1 ovarian) was 0.0452 µM. The TGI (IGROV1 ovarian) was > 25 µM, the GI50 (MDA-MB-435) was 0.00884 µM and the TGI (MDA-MB-435) was 0.0841 µM. For the same molecule, the GI50 (NCI-H226 lung) was 2.59 µM, the TGI (NCI-H226 lung) was > 25 µM and the GI50 (NCI-H460 lung) was 0.0546 µM. For the same molecule, the TGI (NCI-H460 lung) was > 25 µM, the GI50 (SK-MEL-2 melanoma) was 0.492 µM and the TGI (SK-MEL-2 melanoma) was > 25 µM. The GI50 (SK-MEL-28 melanoma) was 1.01 µM and the TGI (SK-MEL-28 melanoma) was > 25 µM.

In the case of O=C(OCc1ccccc1CN1CCOCC1)c1ccc(Br)cc1, the TGI (786-0 renal) is reported as > 100 µM, the TGI (DU-145 prostate) is reported as > 100 µM and the TGI (HCT-15 colon) is reported as > 100 µM. The TGI (HT29 colon) was 44.2 µM, the TGI (IGROV1 ovarian) was > 100 µM and the TGI (MDA-MB-435) was 95.2 µM. The TGI (NCI-H226 lung) was > 100 µM, the TGI (NCI-H460 lung) was > 100 µM and the TGI (SK-MEL-2 melanoma) was > 100 µM. For the same molecule, the TGI (SK-MEL-28 melanoma) was > 100 µM.

CO[C@H]1C=C[C@]23c4cc5c(cc4CN(CC2O)[C@@H]3C1)OCO5 (some centres not stated) was tested, and the TGI (786-0 renal) was 16.5 µM, the TGI (DU-145 prostate) was 7.62 µM and the TGI (HCT-15 colon) was 24.9 µM. It also gave a TGI (HT29 colon) of 39.7 µM, a TGI (IGROV1 ovarian) of 26 µM and a TGI (MDA-MB-435) of 41.9 µM. It also gave a TGI (NCI-H226 lung) of 61.3 µM, a TGI (NCI-H460 lung) of 36.1 µM and a TGI (SK-MEL-2 melanoma) of 6.31 µM. For the same molecule, the TGI (SK-MEL-28 melanoma) was 54.9 µM.

With O=C1c2c(O)cccc2C(C(=O)CCCCC(=O)C2c3cccc(O)c3C(=O)c3c(O)cccc32)c2cccc(O)c21 the GI50 (786-0 renal) was 4.83 µM, the TGI (786-0 renal) was 5.53 µM and 10.7 µM and the TGI (DU-145 prostate) was 1.81 µM. For the same molecule, the GI50 (HCT-15 colon) was 1.75 µM, the TGI (HCT-15 colon) was 2.6 µM and 5.12 µM and the GI50 (HT29 colon) was 1.77 µM. The TGI (HT29 colon) was 1.67 µM and 5.67 µM, the GI50 (IGROV1 ovarian) was 0.664 µM and 1.37 µM and the TGI (IGROV1 ovarian) was 1.74 µM and 3.7 µM. For the same molecule, the TGI (MDA-MB-435) was 3.01 µM, the GI50 (NCI-H226 lung) was 1.1 µM and the TGI (NCI-H226 lung) was 2.27 µM and 2.89 µM. For the same molecule, the TGI (NCI-H460 lung) was 1.35 µM and 1.65 µM, the GI50 (SK-MEL-2 melanoma) was 1.24 µM and the TGI (SK-MEL-2 melanoma) was 1.22 µM and 2.46 µM. For the same molecule, the GI50 (SK-MEL-28 melanoma) was 1.54 µM and the TGI (SK-MEL-28 melanoma) was 2.5 µM and 3.27 µM.

Work on O=C1OC(c2ccc(O)cc2)(c2ccc(O)cc2)c2cccc3cccc1c23 yielded a GI50 (786-0 renal) of 20.2 µM, a TGI (786-0 renal) of 41.8 µM and a GI50 (DU-145 prostate) of 17.2 µM. The TGI (DU-145 prostate) was 31.6 µM, the GI50 (HCT-15 colon) was 13.6 µM and the TGI (HCT-15 colon) was 34.3 µM. For the same molecule, the GI50 (HT29 colon) was 19.4 µM, the TGI (HT29 colon) was 39.6 µM and the GI50 (IGROV1 ovarian) was 17.6 µM. It also gave a TGI (IGROV1 ovarian) of 42.7 µM, a GI50 (MDA-MB-435) of 9.04 µM and a TGI (MDA-MB-435) of 22.4 µM. The GI50 (NCI-H226 lung) was 17.6 µM, the TGI (NCI-H226 lung) was 44.7 µM and the GI50 (NCI-H460 lung) was 17.9 µM. The TGI (NCI-H460 lung) was 39.6 µM, the GI50 (SK-MEL-2 melanoma) was 15.6 µM and the TGI (SK-MEL-2 melanoma) was 31.2 µM. The GI50 (SK-MEL-28 melanoma) was 14.3 µM and the TGI (SK-MEL-28 melanoma) was 29.5 µM.
